Test results reported in ChEMBL document CHEMBL1201862, “PubChem BioAssay data set” (2004).
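Grown in 96-well plates, cells were treated for 48 hours with each compound at five concentrations. Insufficient inhibition: endpoint recorded as highest concentration tested. GI50 is the concentration that inhibits growth by half.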 The source made the active and inactive calls. Cut-off read from the data, not from the text of the source: active = GI50 up to about 1.1 µM and inactive = higher.

Key:
Test in all cases: NCI-60 cell line screen, 48 h
OVCAR-4 = system: OVCAR-4
SF-295 = system: SF-295
CAKI-1 = system: CAKI-1
HL-60 = system: HL-60
SK-MEL-5 = system: SK-MEL-5
MDA-MB-435 = system: MDA-MB-435
786-0 = system: 786-0
ACHN = system: ACHN
SW-620 = system: SW-620
DU-145 = system: DU-145
A549 = system: A549
A498 = system: A498
PC-3 = system: PC-3
SK-MEL-2 = system: SK-MEL-2
RPMI-8226 = system: RPMI-8226
Malme-3M = system: Malme-3M
SN12C = system: SN12C
SF-539 = system: SF-539
NCI-H522 = system: NCI-H522
NCI/ADR-RES = system: NCI/ADR-RES

Measured: GI50

CCOC(=O)c1cc2c([N+](=O)[O-])c(NC(C)=O)ccc2s1
inactive: OVCAR-4 68.4 µM | SF-295 69.3 µM | CAKI-1 41.6 µM | HL-60 31.7 µM | SK-MEL-5 39.4 µM | MDA-MB-435 76.4 µM | 786-0 62.8 µM | ACHN 41.7 µM | SW-620 > 100 µM | DU-145 49 µM | A549 50.2 µM | A498 29.9 µM | PC-3 33.5 µM | SK-MEL-2 > 100 µM | RPMI-8226 24.4 µM | Malme-3M 28.2 µM | SN12C 92 µM | SF-539 > 100 µM | NCI-H522 34.2 µM | NCI/ADR-RES 55.2 µM

CSCCC(N)P(C)(=O)O (stereo not given)
inactive: OVCAR-4 > 100 µM | SF-295 > 100 µM | CAKI-1 > 100 µM | HL-60 > 100 µM | SK-MEL-5 > 100 µM | MDA-MB-435 > 22.2 µM | 786-0 > 100 µM | ACHN > 100 µM | SW-620 > 100 µM | DU-145 > 100 µM | A549 > 100 µM | A498 > 100 µM | PC-3 > 100 µM | SK-MEL-2 > 100 µM | RPMI-8226 > 100 µM | Malme-3M > 100 µM | SN12C > 100 µM | SF-539 > 100 µM | NCI-H522 > 100 µM | NCI/ADR-RES > 100 µM

c1cc2nnc1SCCCSc1ccc(nn1)SCCCS2
inactive: OVCAR-4 16.1 µM | SF-295 20.5 µM | CAKI-1 > 45.4 µM | HL-60 > 19.9 µM | SK-MEL-5 29.1 µM | MDA-MB-435 > 40.6 µM | 786-0 24.2 µM | ACHN > 43.7 µM | SW-620 > 53.3 µM | DU-145 > 48 µM | A549 41.6 µM | A498 97.7 µM | PC-3 38.7 µM | SK-MEL-2 24.7 µM | RPMI-8226 > 25.3 µM | Malme-3M > 48.8 µM | SN12C > 35.8 µM | SF-539 23.5 µM | NCI-H522 > 100 µM | NCI/ADR-RES > 20.5 µM

CC1CC(NC2CCCCC2)=Nc2ccccc2N1Cc1ccccc1 (stereo not given)
inactive: OVCAR-4 5.78 µM | SF-295 6.03 µM | CAKI-1 5.46 µM | HL-60 4.51 µM | SK-MEL-5 2.43 µM | MDA-MB-435 3.38 µM | 786-0 7.71 µM | ACHN 10.4 µM | SW-620 6.37 µM | DU-145 4.66 µM | A549 4.43 µM | A498 2.05 µM | PC-3 5.41 µM | SK-MEL-2 11.2 µM | RPMI-8226 2.6 µM | Malme-3M 1.49 µM | SN12C 7.85 µM | SF-539 5.62 µM | NCI-H522 3.03 µM | NCI/ADR-RES 5.85 µM

CC(Oc1ccccc1Cl)C(=O)NN1C(=O)CSC1c1ccc(Cl)cc1 (stereo not given)
inactive: OVCAR-4 13.7 µM | SF-295 18.5 µM | CAKI-1 23.6 µM | HL-60 7.64 µM | SK-MEL-5 17.6 µM | MDA-MB-435 16.4 µM | 786-0 15.2 µM | ACHN 27.2 µM | SW-620 23.4 µM | DU-145 18.2 µM | A549 18.5 µM | A498 19.8 µM | PC-3 18.9 µM | SK-MEL-2 21.9 µM | RPMI-8226 17.9 µM | Malme-3M 27 µM | SN12C 14.8 µM | SF-539 24.8 µM | NCI-H522 16 µM | NCI/ADR-RES 23.9 µM

O=CN1CCC23CC(O)CCC2C1Cc1cc(Oc2nnnn2-c2ccccc2)cc(O)c13 (stereo not given)
inactive: OVCAR-4 86.1 µM | SF-295 > 100 µM | CAKI-1 > 100 µM | HL-60 52.1 µM | SK-MEL-5 47.2 µM | MDA-MB-435 66.7 µM | 786-0 > 100 µM | ACHN > 100 µM | SW-620 > 100 µM | DU-145 > 100 µM | A549 > 100 µM | A498 68.4 µM | PC-3 > 100 µM | SK-MEL-2 81.3 µM | RPMI-8226 93.3 µM | Malme-3M > 100 µM | SN12C > 100 µM | SF-539 > 100 µM | NCI-H522 91.4 µM | NCI/ADR-RES > 100 µM
